Assay results: patent EP3284739A1, “SUBSTITUTED (HET) ARYL COMPOUNDS AS PESTICIDES” (Bayer CropScience Aktiengesellschaft, priority 2017, dated 2018)

Key:
Spodoptera frugiperda = Spodoptera frugiperda spray test (maize leaf discs, caterpillars); type: in vivo; details: foliar, 168 h, Aufwandmenge 500g/ha, after 7 days, read-out: Wirkung
Description: (§1) Zur Herstellung einer zweckmäßigen Wirkstoffzubereitung löst man 1 Gewichtsteil Wirkstoff mit den angegebenen Gewichtsteilen Lösungsmittel und füllt mit Wasser, welches eine Emulgatorkonzentration von 1000 ppm enthält, bis zum Erreichen der gewünschten Konzentration auf. Zur Herstellung weiterer Testkonzentrationen wird mit emulgatorhaltigem Wasser verdünnt.
Maisblattscheiben (Zea mays) werden mit einer Wirkstoffzubereitung der gewünschten Konzentration gespritzt und nach dem Abtrocknen mit Raupen des Heerwurms (Spodoptera frugiperda) besetzt.
Nach 7 Tagen wird die Wirkung in % bestimmt. Dabei bedeutet 100 %, dass alle Raupen abgetötet wurden; 0 % bedeutet, dass keine Raupe abgetötet wurde.

Phaedon cochleariae = Phaedon cochleariae spray test (Chinese cabbage leaf discs, larvae); type: in vivo; details: foliar, 168 h, read-out: Wirkung
Description: as §1
Chinakohlblattscheiben (Brassica pekinensis) werden mit einer Wirkstoffzubereitung der gewünschten Konzentration gespritzt und nach dem Abtrocknen mit Larven des Meerrettichblattkäfers (Phaedon cochleariae) besetzt.
Nach 7 Tagen wird die Wirkung in % bestimmt. Dabei bedeutet 100 %, dass alle Käferlarven abgetötet wurden; 0 % bedeutet, dass keine Käferlarven abgetötet wurden.

Ctenocephalides felis = Ctenocephalides felis oral test (feeding on treated citrated cattle blood); type: in vivo; details: 48 h, Aufwandmenge 100ppm, after 2 days, read-out: Wirkung (Abtötung)
Experimental: Zwecks Herstellung einer zweckmäßigen Wirkstoffzubereitung vermischt man 10 mg Wirkstoff mit 0,5 ml Dimethylsulfoxid. Durch Verdünnen mit citriertem Rinderblut erhält man die gewünschte Konzentration.
Ca. 20 nüchterne adulte Katzenflöhe (Ctenocephalides felis) werden in eine Kammer eingesetzt, die oben und unten mit Gaze verschlossen ist. Auf die Kammer wird ein Metallzylinder gestellt, dessen Unterseite mit Parafilm verschlossen ist. Der Zylinder enthält die Blut-Wirkstoffzubereitung, die von den Flöhen durch die Parafilmmembran aufgenommen werden kann.
Nach 2 Tagen wird die Abtötung in % bestimmt. Dabei bedeutet 100 %, dass alle Flöhe abgetötet wurden; 0 % bedeutet, dass keiner der Flöhe abgetötet wurde.

[1] = logP by reversed-phase HPLC (LC-MS), neutral range; type: physicochemical; details: c18 hplc, ammonium bicarbonate/acetonitrile; pH 7.8, 0,001 molar aqueous Ammoniumhydrogencarbonat / Acetonitril, C 18, 55°C
Experimental: Die Messung der logP Werte erfolgt gemäß EEC Directive 79/831 Annex V.A8 durch HPLC (High Performance Liquid Chromatography) an einer Phasenumkehrsäule (C 18). Temperatur: 55°C. Die Bestimmung mit der LC-MS im sauren Bereich erfolgt bei pH 2,7 mit 0,1 % wässriger Ameisensäure und Acetonitril (enthält 0,1% Ameisensäure) als Eluenten; linearer Gradient von 10% Acetonitril bis 95% Acetonitril. In der Tabelle logP (HCOOH) genannt.
Die Bestimmung mit der LC-MS im neutralen Bereich erfolgt bei pH 7.8 mit 0,001 molarer wässriger Ammoniumhydrogencarbonat-Lösung und Acetonitril als Eluenten; linearer Gradient von 10 % Acetonitril bis 95 % Acetonitril. In der Tabelle logP (neutral) genannt.
Die Eichung erfolgt mit unverzweigten Alkan-2-onen (mit 3 bis 16 Kohlenstoffatomen), deren logP-Werte bekannt sind (Bestimmung der logP-Werte anhand der Retentionszeiten durch lineare Interpolation zwischen zwei aufeinander folgenden Alkanonen).

Row | chromatographic logP [1] | Structure (SMILES) | mortality at 500 g/ha (Spodoptera frugiperda) [%] | mortality at 500 g/ha (Phaedon cochleariae) [%] | mortality at 100 µg/mL (Ctenocephalides felis) [%]
1 | – | CC(C)(C(=O)Nc1cc(-c2ccc(OC(F)(F)F)cc2)cc(NC(=O)C2CC2)n1)C(F)(F)F [I-016] | 100 | 100 | –
2 | – | O=C(Nc1cc(-c2ccc(OC(F)(F)F)cc2)cc(NC(=O)C2CC2(C2CC2)C2CC2)n1)C1CC1 (stereo not shown) [I-028] | 100 | 100 | 100
3 | – | O=C(Nc1cc(-c2ccc(OC(F)(F)F)cc2)cc(NC(=O)C2(Cl)CC2)n1)C1CC1 [I-013] | 100 | – | –
4 | – | CC(C)C(=O)Nc1cc(-c2ccc(C(F)(F)C(F)(F)F)c(F)c2)cc(NC(=O)C(C)C)n1 [I-052] | 100 | 100 | 100
5 | – | CCCC(=O)Nc1cc(-c2ccc(OC(F)(F)F)cc2)cc(NC(=O)C2CC2)n1 [I-023] | 100 | 100 | 100
6 | – | Cc1cc(-c2cc(NC(=O)C3CC3)nc(NC(=O)C3CC3)c2)cc(F)c1C(F)(F)C(F)(F)F [I-040] | 100 | 100 | –
7 | – | O=C(Cc1ccc(C(F)(F)F)cc1)Nc1cc(-c2ccc(OC(F)(F)F)cc2)cc(NC(=O)C2CC2)n1 [I-002] | 100 | – | –
8 | – | CC1(C(=O)Nc2cc(-c3ccc(OC(F)(F)F)cc3)cc(NC(=O)C3CC3)n2)CCCC1 [I-011] | 100 | – | –
9 | – | N#CC1(C(=O)Nc2cc(-c3ccc(OC(F)(F)F)cc3)cc(NC(=O)C3CC3)n2)CC1 [I-005] | 100 | 83 | 100
10 | – | O=C(Nc1cc(-c2ccc(OC(F)(F)F)cc2)cc(NC(=O)C2CC2)n1)C1CCCC1 [I-021] | 100 | – | 100
11 | 2.83 | Nc1cc(N)cc(-c2ccc(C(F)(F)C(F)(F)F)c(F)c2)c1 [3'-Fluor-4'-(pentafluorethyl)biphenyl-3,5-diamin] | – | – | –
12 | – | CC(=O)Nc1cc(-c2ccc(C(F)(F)C(F)(F)F)c(F)c2)cc(NC(C)=O)n1 [I-059] | 100 | 100 | –
13 | – | O=C(Nc1cc(-c2cc(F)c(C(F)(F)C(F)(F)F)c(F)c2F)cc(NC(=O)C2CC2)n1)C1CC1 [I-047] | 83 | – | –
14 | 3.66 | CN(C(=O)C1CC1)c1cc(-c2ccc(OC(F)(F)F)cc2)cc(NC(=O)C2CC2)n1 [I-31, N-{6-[(Cyclopropylcarbonyl)amino]-4-[4-(trifluormethoxy)phenyl]pyridin-2-yl}-N-methylcyclopropancarboxamid] | – | – | –
15 | 3.32 | CC(C)C(=O)Nc1cc(N)cc(-c2ccc(C(F)(F)C(F)(F)F)c(F)c2)c1 [N-[5-Amino-3'-fluor-4'-(pentafluorethyl)biphenyl-3-yl]-2-methylpropanamid] | – | – | –
16 | – | CC(C)(C#N)C(=O)Nc1cc(-c2ccc(OC(F)(F)F)cc2)cc(NC(=O)C2CC2)n1 [I-009] | 100 | – | –
17 | – | O=C(Nc1cc(NC(=O)C2CC2)cc(-c2ccc(C(F)(F)C(F)(F)F)c(F)c2)c1)C1CC1 [I-050] | 100 | 100 | 100
18 | – | CC(C)C(=O)Nc1cc(-c2ccc(OC(F)(F)F)cc2)cc(NC(=O)C2CC2)n1 [I-018] | 100 | 100 | 100
19 | – | CCC(=O)Nc1cc(-c2ccc(C(F)(F)C(F)(F)F)c(F)c2)cc(NC(=O)C2CC2)n1 [I-055] | 100 | 100 | 100
20 | – | O=C(Nc1cc(-c2c(F)cc(C(F)(F)C(F)(F)F)c(F)c2F)cc(NC(=O)C2CC2)n1)C1CC1 [I-062] | 100 | 100 | –
21 | – | O=C(Nc1cc(-c2cc(F)c(C(F)(F)C(F)(F)F)cc2F)cc(NC(=O)C2CC2)n1)C1CC1 [I-048] | 100 | 83 | –
22 | 2.79 | Nc1cc(-c2ccc(OC(F)(F)F)cc2)cc(NC(=O)C2CC2)n1 [N-{6-Amino-4-[4-(trifluormethoxy)phenyl]pyridin-2-yl}cyclopropancarboxamid] | – | – | –
23 | – | O=C(Nc1cc(-c2cc(F)c(C(F)(F)C(F)(F)F)c(Cl)c2)cc(NC(=O)C2CC2)n1)C1CC1 [I-053] | 100 | 100 | –
24 | – | N#CCCC(=O)Nc1cc(-c2ccc(OC(F)(F)F)cc2)cc(NC(=O)C2CC2)n1 [I-025] | 100 | 83 | –

Row | chromatographic logP [1] | Structure (SMILES) | mortality at 500 g/ha (Spodoptera frugiperda) [%] | mortality at 500 g/ha (Phaedon cochleariae) [%] | mortality at 100 µg/mL (Ctenocephalides felis) [%]
25 | – | CC(C)C(=O)Nc1cc(-c2ccc(C(F)(F)C(F)(F)F)c(F)c2)cc(NC(=O)C2CC2)n1 [I-054] | 100 | 100 | –
26 | 4.05 | CCN(C(=O)C1CC1)c1cc(-c2ccc(OC(F)(F)F)cc2)cc(N(CC)C(=O)C2CC2)n1 [I-29, N,N'-{4-[4-(Trifluormethoxy)phenyl]pyridin-2,6-diyl}bis(N-ethylcyclopropancarboxamid)] | – | – | –
27 | – | O=C(Nc1cc(-c2c(F)cc(C(F)(F)C(F)(F)F)cc2F)cc(NC(=O)C2CC2)n1)C1CC1 [I-041] | 83 | – | –
28 | – | CC(=O)Nc1cc(-c2ccc(C(F)(F)C(F)(F)F)c(F)c2)cc(NC(=O)C2CC2)n1 [I-056] | 100 | 100 | –
29 | – | CC(C)(C(=O)Nc1cc(-c2ccc(OC(F)(F)F)cc2)cc(NC(=O)C2CC2)n1)c1ccccc1 [I-010] | – | 100 | –
30 | – | CC(C)C(=O)Nc1cc(NC(=O)C(C)C)cc(-c2ccc(C(F)(F)C(F)(F)F)c(F)c2)c1 [I-051] | 100 | 100 | 100
31 | – | O=C(Nc1cc(-c2ccc(OC(F)(F)F)cc2)c(Cl)c(NC(=O)C2CC2)n1)C1CC1 [I-038] | 83 | – | –
32 | – | O=C(Nc1cc(-c2cc(F)c(C(F)(F)C(F)(F)F)c(F)c2)cc(NC(=O)C2CC2)n1)C1CC1 [I-044] | 100 | – | –
33 | – | CCC(=O)Nc1cc(-c2ccc(C(F)(F)C(F)(F)F)c(F)c2)cc(NC(=O)CC)n1 [I-058] | 100 | 100 | –
34 | – | N#Cc1ccc(CC(=O)Nc2cc(-c3ccc(OC(F)(F)F)cc3)cc(NC(=O)C3CC3)n2)cc1 [I-007] | 83 | – | 100
35 | – | CCC(=O)Nc1cc(-c2ccc(OC(F)(F)F)cc2)cc(NC(=O)C2CC2)n1 [I-020] | 100 | 100 | –
36 | – | Cc1cc(-c2cc(NC(=O)C3CC3)nc(NC(=O)C3CC3)c2)ccc1C(F)(F)C(F)(F)F [I-043] | 100 | 100 | 100
37 | – | O=C(Nc1cc(-c2cc(F)c(C(F)(F)C(F)(F)F)cc2Cl)cc(NC(=O)C2CC2)n1)C1CC1 [I-042] | 100 | – | –
38 | – | O=C(Nc1cc(-c2ccc(OC(F)(F)F)cc2)cc(NC(=O)C2CC2)n1)c1ccccc1 [I-026] | 100 | 83 | 100
39 | – | N#Cc1ccc(C(=O)Nc2cc(-c3ccc(OC(F)(F)F)cc3)cc(NC(=O)C3CC3)n2)cc1 [I-027] | 100 | 100 | 100
40 | – | O=C(Nc1cc(-c2ccc(C(F)(F)C(F)(F)F)c(F)c2F)cc(NC(=O)C2CC2)n1)C1CC1 [I-045] | 100 | 100 | –
41 | – | N#Cc1cccc(CC(=O)Nc2cc(-c3ccc(OC(F)(F)F)cc3)cc(NC(=O)C3CC3)n2)c1 [I-003] | 100 | – | 100
42 | – | O=C(Nc1cc(-c2ccc(C(F)(F)C(F)(F)F)c(Cl)c2)cc(NC(=O)C2CC2)n1)C1CC1 [I-046] | 100 | 100 | 100
43 | – | CCCCC(=O)Nc1cc(-c2ccc(OC(F)(F)F)cc2)cc(NC(=O)C2CC2)n1 [I-019] | 100 | 100 | –
44 | – | CC(=O)Nc1cc(-c2ccc(OC(F)(F)F)cc2)cc(NC(=O)C2CC2)n1 [I-022] | 100 | 100 | 100
45 | – | CC1(C(=O)Nc2cc(-c3ccc(OC(F)(F)F)cc3)cc(NC(=O)C3CC3)n2)CC1 [I-004] | 100 | 100 | 100
46 | – | N#CC1(C(=O)Nc2cc(-c3ccc(C(F)(F)C(F)(F)F)c(F)c3)cc(NC(=O)C3CC3)n2)CC1 [I-057] | 100 | – | –
47 | – | N#Cc1ccc(CC(=O)Nc2cc(NC(=O)C3CC3)cc(-c3ccc(C(F)(F)C(F)(F)F)c(F)c3)c2)cc1 [I-061] | 83 | – | –
